Experimental data: article PMC9569420 (Communications Biology, 2022)

Assays:
ABL2/ARG = molecular target: T1, ABL2/ARG (Homo sapiens, UniProt P42684); experiment: HotSpot kinase assay; assay type: biochemical; conditions: read-out: % Enzyme Activity (relative to DMSO controls)
T1 construct: purchased Reaction Biology Corporation

ALK5/TGFBR1 = molecular target: T2, ALK5/TGFBR1 (Homo sapiens, UniProt P36897); experiment: HotSpot kinase assay; assay type: biochemical; conditions: read-out: % Enzyme Activity (relative to DMSO controls)
T2 construct: purchased Reaction Biology Corporation

BRK = molecular target: T3, BRK (Homo sapiens, UniProt Q13882); experiment: HotSpot kinase assay; assay type: biochemical; conditions: read-out: % Enzyme Activity (relative to DMSO controls)
T3 construct: purchased Reaction Biology Corporation

BRSK2 = molecular target: T4, BRSK2 (Homo sapiens, UniProt Q8IWQ3); experiment: HotSpot kinase assay; assay type: biochemical; conditions: read-out: % Enzyme Activity (relative to DMSO controls)
T4 construct: purchased Reaction Biology Corporation

c-MER = molecular target: T5, c-MER (Homo sapiens, UniProt Q12866); experiment: HotSpot kinase assay; assay type: biochemical; conditions: read-out: % Enzyme Activity (relative to DMSO controls)
T5 construct: purchased Reaction Biology Corporation
T5 sequence (Q12866 21-999): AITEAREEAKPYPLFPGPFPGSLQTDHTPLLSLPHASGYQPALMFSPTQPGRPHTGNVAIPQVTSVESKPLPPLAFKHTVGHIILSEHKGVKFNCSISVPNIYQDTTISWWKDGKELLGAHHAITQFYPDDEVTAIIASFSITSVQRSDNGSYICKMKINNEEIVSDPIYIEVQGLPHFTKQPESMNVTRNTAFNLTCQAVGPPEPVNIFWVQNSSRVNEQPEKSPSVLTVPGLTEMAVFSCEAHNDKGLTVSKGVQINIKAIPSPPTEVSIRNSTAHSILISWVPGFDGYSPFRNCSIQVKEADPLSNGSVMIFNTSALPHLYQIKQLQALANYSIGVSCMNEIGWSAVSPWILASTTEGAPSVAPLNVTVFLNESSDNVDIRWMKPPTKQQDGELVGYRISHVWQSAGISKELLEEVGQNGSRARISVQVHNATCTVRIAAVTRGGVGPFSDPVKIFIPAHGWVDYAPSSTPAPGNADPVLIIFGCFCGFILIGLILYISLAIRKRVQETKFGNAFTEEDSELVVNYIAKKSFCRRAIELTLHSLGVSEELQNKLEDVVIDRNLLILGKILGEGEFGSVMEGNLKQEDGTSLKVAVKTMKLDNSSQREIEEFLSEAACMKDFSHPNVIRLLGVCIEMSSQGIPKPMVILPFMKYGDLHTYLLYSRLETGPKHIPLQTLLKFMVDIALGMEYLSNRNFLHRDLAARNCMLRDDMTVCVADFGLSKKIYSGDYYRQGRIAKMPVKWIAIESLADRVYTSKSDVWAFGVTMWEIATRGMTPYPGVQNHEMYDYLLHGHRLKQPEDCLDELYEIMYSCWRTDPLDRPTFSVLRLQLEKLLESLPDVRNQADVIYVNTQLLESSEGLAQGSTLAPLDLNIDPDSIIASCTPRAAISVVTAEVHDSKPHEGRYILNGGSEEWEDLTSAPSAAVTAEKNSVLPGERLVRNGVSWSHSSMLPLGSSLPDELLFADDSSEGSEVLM

c-Src = molecular target: T6, c-Src (Homo sapiens, UniProt P12931); experiment: biochemical
T6 construct: purchased Reaction Biology Corporation
T6 sequence (P12931 whole entry): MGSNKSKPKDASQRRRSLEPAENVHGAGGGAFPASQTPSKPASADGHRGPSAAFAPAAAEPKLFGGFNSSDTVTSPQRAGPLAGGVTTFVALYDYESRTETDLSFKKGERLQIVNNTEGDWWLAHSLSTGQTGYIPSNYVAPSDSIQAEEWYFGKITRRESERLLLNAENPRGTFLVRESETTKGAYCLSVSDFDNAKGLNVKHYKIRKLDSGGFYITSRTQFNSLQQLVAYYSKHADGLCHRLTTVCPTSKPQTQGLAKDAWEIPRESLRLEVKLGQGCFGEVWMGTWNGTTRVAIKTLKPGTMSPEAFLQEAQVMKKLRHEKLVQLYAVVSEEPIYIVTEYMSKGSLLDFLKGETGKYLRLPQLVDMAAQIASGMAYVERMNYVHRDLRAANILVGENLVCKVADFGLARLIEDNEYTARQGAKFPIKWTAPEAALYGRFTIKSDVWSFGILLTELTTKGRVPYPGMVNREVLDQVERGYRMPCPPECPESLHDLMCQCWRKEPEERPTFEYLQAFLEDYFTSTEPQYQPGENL

CLK3 = molecular target: T7, CLK3 (Homo sapiens, UniProt P49761); experiment: HotSpot kinase assay; assay type: biochemical; conditions: read-out: % Enzyme Activity (relative to DMSO controls)
T7 construct: purchased Reaction Biology Corporation

DRAK1/STK17A = molecular target: T8, DRAK1/STK17A (Homo sapiens, UniProt Q9UEE5); experiment: HotSpot kinase assay; assay type: biochemical; conditions: read-out: % Enzyme Activity (relative to DMSO controls)
T8 construct: purchased Reaction Biology Corporation

EPHA3 = molecular target: T9, EPHA3 (Homo sapiens, UniProt P29320); experiment: HotSpot kinase assay; assay type: biochemical; conditions: read-out: % Enzyme Activity (relative to DMSO controls)
T9 construct: purchased Reaction Biology Corporation
T9 sequence (P29320 21-983): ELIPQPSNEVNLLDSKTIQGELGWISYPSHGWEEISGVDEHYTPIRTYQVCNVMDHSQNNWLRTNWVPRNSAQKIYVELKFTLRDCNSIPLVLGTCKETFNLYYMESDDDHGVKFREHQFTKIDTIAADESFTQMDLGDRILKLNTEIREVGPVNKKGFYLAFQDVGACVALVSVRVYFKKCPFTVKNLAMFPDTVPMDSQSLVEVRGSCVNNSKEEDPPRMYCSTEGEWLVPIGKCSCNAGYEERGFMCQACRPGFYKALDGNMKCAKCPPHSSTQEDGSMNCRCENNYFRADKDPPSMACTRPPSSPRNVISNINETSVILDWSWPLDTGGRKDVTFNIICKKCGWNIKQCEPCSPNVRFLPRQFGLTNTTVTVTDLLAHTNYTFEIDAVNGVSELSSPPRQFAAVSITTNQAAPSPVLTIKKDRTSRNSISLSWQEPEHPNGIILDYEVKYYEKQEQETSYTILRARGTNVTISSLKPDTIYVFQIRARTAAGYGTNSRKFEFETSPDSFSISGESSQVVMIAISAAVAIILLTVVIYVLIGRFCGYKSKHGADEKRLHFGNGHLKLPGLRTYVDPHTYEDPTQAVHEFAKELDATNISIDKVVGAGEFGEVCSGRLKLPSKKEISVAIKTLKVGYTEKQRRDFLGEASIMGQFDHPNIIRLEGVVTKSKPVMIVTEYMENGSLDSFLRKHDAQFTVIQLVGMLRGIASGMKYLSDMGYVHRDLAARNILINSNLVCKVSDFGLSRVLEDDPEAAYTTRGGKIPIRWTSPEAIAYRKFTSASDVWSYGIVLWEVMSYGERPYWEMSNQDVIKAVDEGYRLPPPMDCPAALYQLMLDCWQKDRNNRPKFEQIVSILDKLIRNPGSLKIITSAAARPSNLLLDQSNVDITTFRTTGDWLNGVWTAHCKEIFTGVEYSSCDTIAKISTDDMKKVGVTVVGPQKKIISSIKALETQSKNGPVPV

EPHB4 = molecular target: T10, EPHB4 (Homo sapiens, UniProt P54760); experiment: HotSpot kinase assay; assay type: biochemical; conditions: read-out: % Enzyme Activity (relative to DMSO controls)
T10 construct: purchased Reaction Biology Corporation

ERN2/IRE2 = molecular target: T11, ERN2/IRE2 (Homo sapiens, UniProt Q76MJ5); experiment: HotSpot kinase assay; assay type: biochemical; conditions: read-out: % Enzyme Activity (relative to DMSO controls)
T11 construct: purchased Reaction Biology Corporation

FES/FPS = molecular target: T12, FES/FPS (Homo sapiens, UniProt P07332); experiment: HotSpot kinase assay; assay type: biochemical; conditions: read-out: % Enzyme Activity (relative to DMSO controls)
T12 construct: purchased Reaction Biology Corporation

GLK/MAP4K3 = molecular target: T13, GLK/MAP4K3 (Homo sapiens, UniProt Q8IVH8); experiment: HotSpot kinase assay; assay type: biochemical; conditions: read-out: % Enzyme Activity (relative to DMSO controls)
T13 construct: purchased Reaction Biology Corporation

GSK3a = molecular target: T14, GSK3a (Homo sapiens, UniProt P49840); experiment: HotSpot kinase assay; assay type: biochemical; conditions: read-out: % Enzyme Activity (relative to DMSO controls)
T14 construct: purchased Reaction Biology Corporation

IRAK1 = molecular target: T15, IRAK1 (Homo sapiens, UniProt P51617); experiment: HotSpot kinase assay; assay type: biochemical; conditions: read-out: % Enzyme Activity (relative to DMSO controls)
T15 construct: purchased Reaction Biology Corporation

JNK2 = molecular target: T16, JNK2 (Homo sapiens, UniProt P45984); experiment: HotSpot kinase assay; assay type: biochemical; conditions: read-out: % Enzyme Activity (relative to DMSO controls)
T16 construct: purchased Reaction Biology Corporation

MARK3 = molecular target: T17, MARK3 (Homo sapiens, UniProt P27448); experiment: HotSpot kinase assay; assay type: biochemical; conditions: read-out: % Enzyme Activity (relative to DMSO controls)
T17 construct: purchased Reaction Biology Corporation

MEKK1 = molecular target: T18, MEKK1 (Homo sapiens, UniProt Q13233); experiment: HotSpot kinase assay; assay type: biochemical; conditions: read-out: % Enzyme Activity (relative to DMSO controls)
T18 construct: purchased Reaction Biology Corporation

MRCKa/CDC42BPA = molecular target: T19, MRCKa/CDC42BPA (Homo sapiens, UniProt Q5VT25); experiment: HotSpot kinase assay; assay type: biochemical; conditions: read-out: % Enzyme Activity (relative to DMSO controls)
T19 construct: purchased Reaction Biology Corporation
T19 sequence (Q5VT25 whole entry): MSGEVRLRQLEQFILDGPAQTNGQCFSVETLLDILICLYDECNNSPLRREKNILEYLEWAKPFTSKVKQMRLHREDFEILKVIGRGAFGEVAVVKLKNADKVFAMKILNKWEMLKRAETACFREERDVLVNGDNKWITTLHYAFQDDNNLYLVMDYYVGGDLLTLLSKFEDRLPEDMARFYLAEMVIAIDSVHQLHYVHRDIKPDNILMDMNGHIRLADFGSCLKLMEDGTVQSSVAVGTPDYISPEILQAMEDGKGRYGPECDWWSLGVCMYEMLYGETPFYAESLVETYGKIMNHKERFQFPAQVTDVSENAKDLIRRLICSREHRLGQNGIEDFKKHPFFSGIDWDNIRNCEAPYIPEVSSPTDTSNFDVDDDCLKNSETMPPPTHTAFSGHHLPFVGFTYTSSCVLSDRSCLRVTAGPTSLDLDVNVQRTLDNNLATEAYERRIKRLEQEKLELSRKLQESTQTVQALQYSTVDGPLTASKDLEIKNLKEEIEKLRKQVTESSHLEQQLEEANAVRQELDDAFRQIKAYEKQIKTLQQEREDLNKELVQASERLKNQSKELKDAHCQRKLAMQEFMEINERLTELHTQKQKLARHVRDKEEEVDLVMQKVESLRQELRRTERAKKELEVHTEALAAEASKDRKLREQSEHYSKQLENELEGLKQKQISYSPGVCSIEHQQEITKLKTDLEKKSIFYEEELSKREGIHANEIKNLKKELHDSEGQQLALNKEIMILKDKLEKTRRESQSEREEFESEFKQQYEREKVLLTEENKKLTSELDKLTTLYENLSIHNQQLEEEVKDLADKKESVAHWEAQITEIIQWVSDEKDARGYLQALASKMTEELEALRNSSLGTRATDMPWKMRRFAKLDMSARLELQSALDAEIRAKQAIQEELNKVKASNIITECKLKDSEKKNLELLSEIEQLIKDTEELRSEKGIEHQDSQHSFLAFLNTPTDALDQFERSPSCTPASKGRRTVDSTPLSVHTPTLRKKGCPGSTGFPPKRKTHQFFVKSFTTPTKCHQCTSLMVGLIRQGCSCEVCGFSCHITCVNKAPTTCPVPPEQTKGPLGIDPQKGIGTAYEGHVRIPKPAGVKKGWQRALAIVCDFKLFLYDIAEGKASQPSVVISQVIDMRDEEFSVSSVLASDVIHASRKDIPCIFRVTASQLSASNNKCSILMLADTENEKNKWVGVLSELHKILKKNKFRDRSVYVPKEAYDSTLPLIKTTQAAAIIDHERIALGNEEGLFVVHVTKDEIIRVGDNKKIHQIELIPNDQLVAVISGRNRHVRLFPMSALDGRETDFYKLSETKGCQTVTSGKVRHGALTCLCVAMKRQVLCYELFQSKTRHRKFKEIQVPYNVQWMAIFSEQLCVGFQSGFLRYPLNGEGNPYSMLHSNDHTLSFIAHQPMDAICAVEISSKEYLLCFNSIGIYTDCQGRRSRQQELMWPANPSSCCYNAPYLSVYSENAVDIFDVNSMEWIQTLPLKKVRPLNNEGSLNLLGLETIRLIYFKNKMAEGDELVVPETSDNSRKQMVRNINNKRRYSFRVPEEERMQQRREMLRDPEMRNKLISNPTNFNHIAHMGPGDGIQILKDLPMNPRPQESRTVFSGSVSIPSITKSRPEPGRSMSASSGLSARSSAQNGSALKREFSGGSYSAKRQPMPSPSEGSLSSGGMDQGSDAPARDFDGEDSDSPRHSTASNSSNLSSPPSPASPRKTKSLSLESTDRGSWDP

NEK1 = molecular target: T20, NEK1 (Homo sapiens, UniProt Q96PY6); experiment: HotSpot kinase assay; assay type: biochemical; conditions: read-out: % Enzyme Activity (relative to DMSO controls)
T20 construct: purchased Reaction Biology Corporation

P38a/MAPK14 = molecular target: T21, P38a/MAPK14 (Homo sapiens, UniProt Q16539); experiment: HotSpot kinase assay; assay type: biochemical; conditions: read-out: % Enzyme Activity (relative to DMSO controls)
T21 construct: purchased Reaction Biology Corporation

p70S6K/RPS6KB1 = molecular target: T22, p70S6K/RPS6KB1 (Homo sapiens, UniProt P23443); experiment: HotSpot kinase assay; assay type: biochemical; conditions: read-out: % Enzyme Activity (relative to DMSO controls)
T22 construct: purchased Reaction Biology Corporation

PAK6 = molecular target: T23, PAK6 (Homo sapiens, UniProt Q9NQU5); experiment: HotSpot kinase assay; assay type: biochemical; conditions: read-out: % Enzyme Activity (relative to DMSO controls)
T23 construct: purchased Reaction Biology Corporation

PKAcg = molecular target: T24, PKAcg (Homo sapiens, UniProt P22612); experiment: HotSpot kinase assay; assay type: biochemical; conditions: read-out: % Enzyme Activity (relative to DMSO controls)
T24 construct: purchased Reaction Biology Corporation

PKCa = molecular target: T25, PKCa (Homo sapiens, UniProt P17252); experiment: HotSpot kinase assay; assay type: biochemical; conditions: read-out: % Enzyme Activity (relative to DMSO controls)
T25 construct: purchased Reaction Biology Corporation

PKCnu/PRKD3 = molecular target: T26, PKCnu/PRKD3 (Homo sapiens, UniProt O94806); experiment: HotSpot kinase assay; assay type: biochemical; conditions: read-out: % Enzyme Activity (relative to DMSO controls)
T26 construct: purchased Reaction Biology Corporation

RIPK5 = molecular target: T27, RIPK5 (Homo sapiens, UniProt Q6XUX3); experiment: HotSpot kinase assay; assay type: biochemical; conditions: read-out: % Enzyme Activity (relative to DMSO controls)
T27 construct: purchased Reaction Biology Corporation

ROCK1 = molecular target: T28, ROCK1 (Homo sapiens, UniProt Q13464); experiment: HotSpot kinase assay; assay type: biochemical; conditions: read-out: % Enzyme Activity (relative to DMSO controls)
T28 construct: purchased Reaction Biology Corporation

RSK2 = molecular target: T29, RSK2 (Homo sapiens, UniProt P51812); experiment: HotSpot kinase assay; assay type: biochemical; conditions: read-out: % Enzyme Activity (relative to DMSO controls)
T29 construct: purchased Reaction Biology Corporation

RSK3 = molecular target: T30, RSK3 (Homo sapiens, UniProt Q15349); experiment: HotSpot kinase assay; assay type: biochemical; conditions: read-out: % Enzyme Activity (relative to DMSO controls)
T30 construct: purchased Reaction Biology Corporation
T30 sequence (Q15349 whole entry): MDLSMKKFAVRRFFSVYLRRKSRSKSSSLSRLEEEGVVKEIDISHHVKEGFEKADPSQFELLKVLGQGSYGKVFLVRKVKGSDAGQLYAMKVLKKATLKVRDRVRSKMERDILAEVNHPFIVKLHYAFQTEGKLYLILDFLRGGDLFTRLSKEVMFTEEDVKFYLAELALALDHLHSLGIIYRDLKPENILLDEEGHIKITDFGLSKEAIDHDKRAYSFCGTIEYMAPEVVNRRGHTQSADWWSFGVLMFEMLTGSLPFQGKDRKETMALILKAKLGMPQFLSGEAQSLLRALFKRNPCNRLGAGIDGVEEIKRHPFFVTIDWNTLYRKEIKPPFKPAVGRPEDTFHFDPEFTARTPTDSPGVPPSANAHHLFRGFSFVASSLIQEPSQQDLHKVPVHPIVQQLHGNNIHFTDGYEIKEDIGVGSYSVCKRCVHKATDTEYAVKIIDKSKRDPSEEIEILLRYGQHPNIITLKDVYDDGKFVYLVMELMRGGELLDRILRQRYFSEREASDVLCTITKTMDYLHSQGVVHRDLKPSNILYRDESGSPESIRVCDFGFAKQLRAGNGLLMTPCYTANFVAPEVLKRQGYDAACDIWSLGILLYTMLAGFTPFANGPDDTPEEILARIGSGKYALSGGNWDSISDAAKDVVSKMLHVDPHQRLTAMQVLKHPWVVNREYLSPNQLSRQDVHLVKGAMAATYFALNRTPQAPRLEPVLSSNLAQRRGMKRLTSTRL

SGK2 = molecular target: T31, SGK2 (Homo sapiens, UniProt Q9HBY8); experiment: HotSpot kinase assay; assay type: biochemical; conditions: read-out: % Enzyme Activity (relative to DMSO controls)
T31 construct: purchased Reaction Biology Corporation

STK38/NDR1 = molecular target: T32, STK38/NDR1 (Homo sapiens, UniProt Q15208); experiment: HotSpot kinase assay; assay type: biochemical; conditions: read-out: % Enzyme Activity (relative to DMSO controls)
T32 construct: purchased Reaction Biology Corporation

TAOK3/JIK = molecular target: T33, TAOK3/JIK (Homo sapiens, UniProt Q9H2K8); experiment: HotSpot kinase assay; assay type: biochemical; conditions: read-out: % Enzyme Activity (relative to DMSO controls)
T33 construct: purchased Reaction Biology Corporation

TBK1 = molecular target: T34, TBK1 (Homo sapiens, UniProt Q9UHD2); experiment: HotSpot kinase assay; assay type: biochemical; conditions: read-out: % Enzyme Activity (relative to DMSO controls)
T34 construct: purchased Reaction Biology Corporation

DNA-PK = molecular target: T35, DNA-PK (Homo sapiens, UniProt P78527); experiment: HotSpot kinase assay; assay type: biochemical; conditions: read-out: % Enzyme Activity (relative to DMSO controls)
T35 construct: purchased Reaction Biology Corporation

[1] = Parallel artificial membrane permeability assay (PAMPA); assay type: in vitro ADME
PtdS and Akt = experiment: translocation of PtdS and Akt to the outer leaflet (microscopy), HSV-2 infected HaCat; assay type: cell-based, human; conditions: 10µM
VSV-S = assay type: cell-based, VSV pseudotyped with SARS-CoV-2 spike
PLSCR1 = assay type: cell-based, monkey; conditions: 30 min; drugs 10 μM, immunoglobulins 10 μg/ml
[2] = cell proliferation and viability, ~50% confluent; conditions: human, cell proliferation and viability, odu as a percentage of the DMSO control, 120 h (Fig 1d source data)
[3] = tested on: Primary vaginal epithelial cells; experiment: cell proliferation and viability, ~50% confluent; conditions: for cell proliferation and viability, odu as a percentage of the DMSO control: 120 h (Fig 1d source data)

## CO[C@@H]1[C@H](N(C)C(=O)CCC(=O)NCc2cn(CCCS(=O)(=O)O)nn2)C[C@H]2O[C@]1(C)n1c3ccccc3c3c4c(c5c6ccccc6n2c5c31)C(=O)NC4 [CIMSS]
ABL2/ARG
  remaining activity at 10 µM: 4.07%
ALK5/TGFBR1
  remaining activity at 10 µM: 86.6%
BRK
  remaining activity at 10 µM: 25.5%
BRSK2
  remaining activity at 10 µM: 1.66%
c-MER
  remaining activity at 10 µM: 2.17%
c-Src; Supplementary Table 1, read-out: IC50 (Molar concentration)
  IC50: 11.9 nM
c-Src; read-out: % Enzyme Activity (relative to DMSO controls), 10µM
  remaining activity at 10 µM: 2.95%
CLK3
  remaining activity at 10 µM: 35.4%
DRAK1/STK17A
  remaining activity at 10 µM: 18.2%
EPHA3
  remaining activity at 10 µM: 37.9%
EPHB4
  remaining activity at 10 µM: 19.4%
ERN2/IRE2
  remaining activity at 10 µM: 6.47%
FES/FPS
  remaining activity at 10 µM: 2.77%
GLK/MAP4K3
  remaining activity at 10 µM: 0.96%
GSK3a
  remaining activity at 10 µM: 2.72%
IRAK1
  remaining activity at 10 µM: 3.57%
JNK2
  remaining activity at 10 µM: 42.3%
MARK3
  remaining activity at 10 µM: 1.8%
MEKK1
  remaining activity at 10 µM: 67%
MRCKa/CDC42BPA
  remaining activity at 10 µM: 71.3%
NEK1
  remaining activity at 10 µM: 5.88%
P38a/MAPK14
  remaining activity at 10 µM: 102%
p70S6K/RPS6KB1
  remaining activity at 10 µM: 5.46%
PAK6
  remaining activity at 10 µM: 9.79%
PKAcg
  remaining activity at 10 µM: 2.07%
PKCa
  remaining activity at 10 µM: 0.86%
PKCnu/PRKD3
  remaining activity at 10 µM: 11.4%
RIPK5
  remaining activity at 10 µM: 22.7%
ROCK1
  remaining activity at 10 µM: 26.2%
RSK2
  remaining activity at 10 µM: 1.69%
RSK3
  remaining activity at 10 µM: 3.38%
SGK2
  remaining activity at 10 µM: 22.6%
STK38/NDR1
  remaining activity at 10 µM: 8.29%
TAOK3/JIK
  remaining activity at 10 µM: 12.8%
TBK1
  remaining activity at 10 µM: 2.01%
DNA-PK
  remaining activity at 10 µM: 98.2%
[1]; 100 µM
  Recover %: 83%
[1]; PAMPA, PBS pH 7.4, 5 h
  Papp at 5 h, 100 μM: 0.005 ×10⁻⁶ cm/s
PtdS and Akt
  translocation of PtdS and Akt to the outer leaflet of the plasma membrane: did not block
VSV-S
  VSV-S infection: inhibited
PLSCR1
  Phosphorylation of PLSCR1: preserved
[2]; 10 μM
  viability at 120 h, 10 µM: 102%
[2]; 50 μM
  viability at 120 h, 50 µM: 93%
[3]; 10 μM
  cell proliferation and viability, odu as a percentage of the DMSO control: 99.5%
[3]; 50 μM
  cell proliferation and viability, odu as a percentage of the DMSO control: 91.8%
[3]; 10 or 50 μM, up to 120 h
  cytotoxicity: little or no cytotoxicity
